The source of these data is patent publication US12605653B2, “Anionic switchable hydrophilicity solvents” (QUEEN'S UNIVERSITY AT KINGSTON, priority 2022, dated 2026).

Molecules are shown by their SMILES.

Data set [1] in a line: Evaluation of the switching behaviour of ASHS systems (carboxylic acid/base/water) under air and 1 bar of CO2. Type of data set: physicochemical. The note with it: for Behaviour of the system: base NaOH; for Behaviour of the system after CO2 addition / pH under 1 bar of CO2 / pH under air: 20° C.; for Phase behaviour upon addition of 1 bar of CO2: base Jeffamine D-230, TEA, DMEA or 3DMAP, base:acid mole ratio 1:1, water:acid mass ratio 15:1 and other ratios; for Phase behaviour upon addition of CO2 / Phases under air: substoichiometric aqueous NaOH, 0.6 to 0.7 equivalents of base. How it is done:
Base solutions were prepared by combining the desired base and water (mass for components measured in an analytical scale) into either a 10 or 25 mL graduated cylinder (containing a magnetic stir bar) depending on the final volume of the mixture obtained. The carboxylic acid (mass measured using an analytical balance prior to addition) being studied was added to the base solution, and the mixture was mixed with the help of a magnetic stir plate. The amount of base and water used were selected based on the acid:base:water ratio desired. Experiments were carried out using stoichiometric and substoichiometric amounts of the base relative to the number of mols of acid added. In addition, the quantity of water used was adjusted based on the acid:water mass ratio desired. A typical experiment would contain 1 g of the carboxylic acid; between 0.4 and 1 mol of base per mol of acid; and a water mass varying from 1 to 9.5 g.
During a typical experiment, CO2 would be added for approximately 2 h at atmospheric pressure. At the end of the 2 h, the sparge tube would be removed, and the number and volume of the phases obtained would be recorded. The pH was once again recorded. For mixtures with only 1 phase, the pH of that phase was recorded. While for mixtures with 2 phases, the pH of the aqueous phase was recorded.
In the systems in which the base:acid mole ratio and the water:acid mass ratio were being studied, a slight modification from this method was used. The acid being tested (1 g) was mixed with 1 g of water and the required amount of NaOH (based on the acid:base molar ratio desired) to prepare the mixture. […]
The base solution was then added to the carboxylic acid, and the next steps followed the procedure previously described.

For data set [2] the following is noted: CPPA-EPS mixture, limited by viscosity; 60° C.
Where [3] appears, read: base 3DMAP, base:acid mole ratio 0.60:1, H2O:acid mass ratio 2.5:1.
The mark [4] stands for this setting: base DMEA, base:acid mole ratio 0.55:1, H2O:acid mass ratio 2.5:1.
The mark [5] stands for this setting: base Jeffamine D-230 (two moles acid per mole D-230), H2O:acid mass ratio 12:1, 1 bar CO2, partial = acid recovered smaller than mass added.
[6] abbreviates: base Jeffamine D-230 (two moles acid per mole D-230), H2O:acid mass ratio 12:1.
The mark [7] stands for this setting: base Jeffamine D-230 (two moles acid per mole D-230), H2O:acid mass ratio 15:1, 1 bar CO2, partial = acid recovered smaller than mass added.
[8] abbreviates: base Jeffamine D-230 (two moles acid per mole D-230), H2O:acid mass ratio 15:1.
[9] abbreviates: base MDEA, base:acid mole ratio 0.55:1, H2O:acid mass ratio 2.5:1.
The mark [10] stands for this setting: carboxylic acid:H2O mass ratio 1:2.5, carboxylic acid:NaOH mol ratio 1:0.8.
Setting [11] is: base TEA, base:acid mole ratio 0.60:1, H2O:acid mass ratio 2.5:1.
Where [12] appears, read: base 3DMAP, base:acid mole ratio 0.45:1, H2O:acid mass ratio 2.5:1.
The mark [13] stands for this setting: base DMEA, base:acid mole ratio 0.50:1, H2O:acid mass ratio 2.5:1.
Setting [14] is: base MDEA, base:acid mole ratio 0.50:1, H2O:acid mass ratio 2.5:1.
Setting [15] is: base TEA, base:acid mole ratio 0.40:1, H2O:acid mass ratio 2.5:1.
Where [16] appears, read: base 3DMAP, base:acid mole ratio 0.55:1, H2O:acid mass ratio 2.5:1.
[17] abbreviates: base DMEA, base:acid mole ratio 0.60:1, H2O:acid mass ratio 2.5:1.
Setting [18] is: base Jeffamine D-230 (two moles acid per mole D-230), H2O:acid mass ratio 1:1-9.5:1.
The mark [19] stands for this setting: base MDEA, base:acid mole ratio 0.65:1, H2O:acid mass ratio 2.5:1.
The mark [20] stands for this setting: base TEA, MDEA, DMEA or 3-DMAP, base:acid mol ratio 1:1, H2O:acid mass ratio 12:1-15:1.
Where [21] appears, read: base TEA, base:acid mole ratio 0.65:1, H2O:acid mass ratio 2.5:1.

With `CCCCCCCCC(=O)O` [Nonanoic acid, nonanoic acid], in data set [1] (carboxylic acid:H2O mass ratio 1:2.5, carboxylic acid:NaOH mol ratio 1:0.7), the “Behaviour of the system” value is listed as “Switchable”.
In the case of `CC(C)C(=O)O` [Isobutyric acid, isobutyric acid], in data set [1] (carboxylic acid:H2O mass ratio 1:2.5, carboxylic acid:NaOH mol ratio 1:0.6), the “Behaviour of the system” value is given as “Monophasic under”.
`CCCCCCCCC(CCCCCC)C(=O)O` (centres unmarked) [2-hexyldecanoic acid]: the “Behaviour of the system” value in data set [1] (carboxylic acid:H2O mass ratio 1:12, carboxylic acid:NaOH mol ratio 1:1) is “Biphasic under air”.
Consider `CCCCCCCC/C=C\CCCCCCCC(=O)O` [Oleic acid, oleic acid], for which the “Behaviour of the system” value in data set [1] (carboxylic acid:H2O mass ratio 1:10, carboxylic acid:NaOH mol ratio 1:1) is given as “Biphasic under air”.
For `CCCC(CCC)C(=O)O` [PPA, 2-propylpentanoic acid], the “Behaviour of the system after CO2 addition” value was “Phase separation above 50” in data set [1] (base 3DMAP, base:acid mole ratio 0.60:1, H2O:acid mass ratio 2.5:1, 1 bar CO2, threshold 50 vol % recovered); “Phase separation above 50” in data set [1] (base DMEA, base:acid mole ratio 0.55:1, H2O:acid mass ratio 2.5:1, 1 bar CO2, threshold 50 vol % recovered); “Partial phase separation” in data set [1] (setting [5]); “Partial phase separation” in data set [1] (setting [7]); “Phase separation above 50” in data set [1] (base MDEA, base:acid mole ratio 0.55:1, H2O:acid mass ratio 2.5:1, 1 bar CO2, threshold 50 vol % recovered); “No phase separation” in data set [1] (base TEA, base:acid mole ratio 0.60:1, H2O:acid mass ratio 2.5:1, 1 bar CO2). In addition, the “pH under 1 bar of CO2” value came to 6.70 in data set [1] (setting [3]); 6.78 in data set [1] (setting [4]); 6.84 in data set [1] (setting [6]); 6.73 in data set [1] (setting [8]); 6.69 in data set [1] (setting [9]); 6.72 in data set [1] (setting [11]). The pH under air was found to be 6.63 in data set [1] (setting [3]); 6.70 in data set [1] (setting [4]); 7.86 in data set [1] (setting [6]); 8.43 in data set [1] (setting [8]); 6.59 in data set [1] (setting [9]); 6.51 in data set [1] (setting [11]). For the same compound, the “Phase behaviour upon addition of 1 bar of CO2” value in data set [1] (MDEA) is “no phase separation was observed”. Also, in data set [1] (setting [10]), the “Behaviour of the system” value is reported as “Switchable”. For the same compound, the “Phase behaviour upon addition of CO2” value in data set [1] is “phase separation was observed”. Further, in data set [1], the Phases under air entry is on record as “one phase”.
Regarding `O=C(O)CCC1CCCC1` [CPPA, 3-cyclopentylpropionic acid], the “Behaviour of the system after CO2 addition” value in data set [1] (base 3DMAP, base:acid mole ratio 0.45:1, H2O:acid mass ratio 2.5:1, 1 bar CO2, threshold 50 vol % recovered) is “Phase separation above 50”; in data set [1] (base DMEA, base:acid mole ratio 0.50:1, H2O:acid mass ratio 2.5:1, 1 bar CO2), “No phase separation”; in data set [1] (setting [5]), “No phase separation”; in data set [1] (setting [7]) it was “No phase separation”; in data set [1] (base MDEA, base:acid mole ratio 0.50:1, H2O:acid mass ratio 2.5:1, 1 bar CO2), “No phase separation”; in data set [1] (base TEA, base:acid mole ratio 0.40:1, H2O:acid mass ratio 2.5:1, 1 bar CO2), “No phase separation”. For the same compound, the “pH under 1 bar of CO2” value in data set [1] (setting [12]) came to 6.02; in data set [1] (setting [13]) it was 6.25; in data set [1] (setting [6]), 6.55; in data set [1] (setting [8]), 6.45; in data set [1] (setting [14]), 6.23; in data set [1] (setting [15]) it was 6.04. The pH under air is listed as 6.06 in data set [1] (setting [12]); 6.22 in data set [1] (setting [13]); 7.00 in data set [1] (setting [6]); 6.94 in data set [1] (setting [8]); 6.16 in data set [1] (setting [14]); 5.98 in data set [1] (setting [15]). For the same compound, in data set [1] (MDEA), the “Phase behaviour upon addition of 1 bar of CO2” value is on record as “no phase separation was observed”. Moreover, the “Behaviour of the system” value is listed as “successful switchable behaviour” in data set [1] (2:1 H2O:acid mass ratio, 1 bar CO2, narrow range of base:acid ratio) and “Switchable” in data set [1] (setting [10]). The “Phase behaviour upon addition of CO2” value in data set [1] is “phase separation was observed”. In addition, in data set [1], the Phases under air result is listed as “one phase”. Moreover, the “maximum polymer (EPS) loading attained in the carboxylic acid” value in data set [2] was 50 wt %.
Regarding `C=CCCCCCCCCC(=O)O` [10-undecenoic acid], the “Behaviour of the system” value in data set [1] (carboxylic acid:H2O mass ratio 1:2.5, carboxylic acid:NaOH mol ratio 1:1) is listed as “Switchable”.
Turning to `CCCCCC(=O)O` [Hexanoic acid, hexanoic acid], the “Behaviour of the system” value in data set [1] (carboxylic acid:H2O mass ratio 2:1, carboxylic acid:NaOH mol ratio 1:0.6) is “Monophasic under”.
With `CCCCCCCC(=O)O` [Octanoic acid, octanoic acid, reference compound], the “Behaviour of the system after CO2 addition” value was “Phase separation below 50” in data set [1] (base 3DMAP, base:acid mole ratio 0.55:1, H2O:acid mass ratio 2.5:1, 1 bar CO2, threshold 50 vol % recovered); “Phase separation below 50” in data set [1] (base DMEA, base:acid mole ratio 0.60:1, H2O:acid mass ratio 2.5:1, 1 bar CO2, threshold 50 vol % recovered); “No phase separation” in data set [1] (base Jeffamine D-230 (two moles acid per mole D-230), H2O:acid mass ratio 1:1-9.5:1, 1 bar CO2); “Partial phase separation^b” in data set [1] (setting [7]); “No phase separation” in data set [1] (base MDEA, base:acid mole ratio 0.65:1, H2O:acid mass ratio 2.5:1, 1 bar CO2); “No phase separation” in data set [1] (base TEA, MDEA, DMEA or 3-DMAP, base:acid mol ratio 1:1, H2O:acid mass ratio 12:1-15:1, 1 bar CO2). In data set [1] (base TEA, base:acid mole ratio 0.65:1, H2O:acid mass ratio 2.5:1, 1 bar CO2), the “Behaviour of the system after CO2 addition” value is reported as “No phase separation”. For the same compound, the “pH under 1 bar of CO2” value is 6.46 in data set [1] (setting [16]); 6.71 in data set [1] (setting [17]); 6.85-7.60 in data set [1] (setting [18]); 6.70 in data set [1] (setting [8]); 6.65 in data set [1] (setting [19]); 6.70-6.90 in data set [1] (setting [20]). Besides, the “pH under 1 bar of CO2” value in data set [1] (setting [21]) is reported as 6.75. Further, the pH under air in data set [1] (setting [16]) is 6.34; in data set [1] (setting [17]), 6.86; in data set [1] (setting [18]) it was 7.60-7.90; in data set [1] (setting [8]), 7.55; in data set [1] (setting [19]), 6.69; in data set [1] (setting [20]) it was 7.60-7.70. Further, the pH under air in data set [1] (setting [21]) was found to be 6.68. In addition, the “Phase behaviour upon addition of 1 bar of CO2” value in data set [1] (MDEA) is “no phase separation was observed”. In data set [1] (carboxylic acid:H2O mass ratio 1:1.5 and 1:2.5, carboxylic acid:NaOH mol ratio 1:0.9), the “Behaviour of the system” value is “Switchable”.
As for `CC(C(=O)O)c1ccccc1` (centres unmarked) [2-phenylpropionic acid], in data set [1] (carboxylic acid:H2O mass ratio 1:2.5, carboxylic acid:NaOH mol ratio 1:0.5 and 1:0.6), the “Behaviour of the system” value is listed as “Monophasic under”.
Turning to `CCCCC/C=C\C/C=C\CCCCCCCC(=O)O` [Linoleic acid, linoleic acid], the “Behaviour of the system” value in data set [1] (carboxylic acid:H2O mass ratio 1:5, carboxylic acid:NaOH mol ratio 1:1) is recorded as “Biphasic under air”.
